Measurements published in ChEMBL document CHEMBL4610087, “Swinhopeptolides A and B: Cyclic Depsipeptides from the Sponge Theonella swinhoei That Inhibit Ras/Raf Interaction” (J Nat Prod, 2020).

Test: Inhibition of Ras-Raf (unknown origin) protein-protein interaction incubated for 4 hrs by cell based-BRET assay
Settings: Homo sapiens

| Compound | IC50 [µM] |
| --- | --- |
| C/C=C(\NC(=O)[C@@H](CO)NC(=O)[C@@](C)(O)[C@H](O)/C=C\C(C)=C\[C@H](C)CC)C(=O)N[C@H](C(=O)N[C@H](C(=O)N[C@H]1C(=O)N[C@H](COC)C(=O)NCC(=O)N[C@@H](C)C(=O)N(C)[C@@H]([C@@H](C)O)C(=O)N[C@H]([C@H](OC)c2ccc(O)cc2)C(=O)N2CCC[C@H]2C(=O)O[C@@H]1C(C)C)[C@@H](C)[C@@H](C)C(N)=O)[C@H](C)N | 5.8 |
| C/C=C(\NC(=O)[C@@H](CO)NC(=O)/C(C)=C/C=C/C(C)=C/C(C)CC)C(=O)N[C@H](C(=O)N[C@H](C(=O)N[C@H]1C(=O)N[C@H](COC)C(=O)NCC(=O)N[C@@H](C)C(=O)N(C)[C@@H]([C@@H](C)O)C(=O)N[C@H]([C@H](OC)c2ccc(O)cc2)C(=O)N2CCC[C@H]2C(=O)O[C@@H]1C(C)C)[C@@H](C)[C@@H](C)C(N)=O)[C@H](C)N (some centres not stated) | 8.5 |
